According to patent publication US12391712B2, “Phosphate derivatives of RORgamma modulators and uses thereof” (GENFIT, priority 2019, dated 2025):
Values after ≈ are worked out from the molar mass of the structure shown.

What was measured:
[1] = Solubility in phosphate buffer pH=7.4; assay type: physicochemical; conditions: for solubility at 24 h: aqueous buffer, thermodynamic from solid; for Solubility ratio: phosphate derivative / unphosphated counterpart; for Solubility ratio / fold more soluble compared to unphosphated analogue: phosphate buffer pH=7.4
Experimental: General procedure: The test compound was solubilized in phosphate buffer pH=7.4 at a given concentration (test concentration). The mixture was maintained under vigorous stirring for 24 hours at room temperature. In case a insoluble solid appeared, it was removed by centrifugation and the concentration of the test compound in the solution was determined by LC-MS/MS using appropriate methods.

[2] = Metabolic stability (hydrolysis) in bronchoalveolar lavage fluid; assay type: in vitro ADME, human
Experimental: General procedure: human bronchoalveolar lavage fluid (hBALf) was purchased from BiolVT. Sample was collected from an individual donor. The only known information provided for the donor were age and gender. Information regarding the health status of the donor was not known.
The hydrolysis of compound 2 was tested at the concentration of 1 μM and 10 μM for 120 minutes (time points 5, 15, 30, 60 and 120 minutes). Quantification of the compound was then carried out by LC-MS/MS using appropriate methods.

[3] = Stability in water at room temperature; assay type: physicochemical; conditions: 5 mg/mL in water
Experimental: General procedure: compound 2 (Cpd. 2) according to the invention was dissolved in water in order to obtain a 5 mg/mL concentration. The solution was stirred for 7 days at room temperature. Compound 2 was quantified at different time points (0, 5 days and 7 days) by UPLC/MS using appropriate method.
Results are expressed as percentage of initial signal area for Cpd.2 (time point (1-day).

[4] = phosphate buffer pH=7.4, stirring 24 hours at room temperature, LC-MS/MS

| SMILES | solubility at 24 h [1, 4] [µg/mL] | Solubility ratio [1] | also measured |
| --- | --- | --- | --- |
| COc1cc(C)ccc1C(NC(=O)C1(c2ccc3[nH]cc(CCO)c3c2)CC1)c1ccccc1 (centres unmarked) [Ex.2a, 1-[3-(2-hydroxyethyl)-1H-indol-5-yl]-N-[(2-methoxy-4-methylphenyl)(phenyl)methyl]cyclopropane-1-carboxamide] | 1.6 (≈ 3.52 µM) | – | – |
| Cc1ccc(C(NC(=O)C2(c3ccc4[nH]cc(CCOP(=O)([O-])[O-])c4c3)CC2)C2CC2)c(C)c1.[Na+].[Na+] (centres unmarked) [Cpd.14, disodium 2-[5-(1-{[cyclopropyl(2,4-dimethylphenyl)methyl]carbamoyl}cyclopropyl)-1H-indol-3-yl]ethyl phosphate] | > 70800 | ≥5 949 | – |
| COc1ccc(C(NC(=O)C2(c3ccc4[nH]cc(CCO)c4c3)CC2)c2ccccc2)c(C)c1 (centres unmarked) [Ex.5a, 1-[3-(2-hydroxyethyl)-1H-indol-5-yl]-N-[(4-methoxy-2-methylphenyl)(phenyl)methyl]cyclopropane-1-carboxamide] | 3.7 (≈ 8.14 µM) | – | – |
| Cc1ccc(C(NC(=O)C2(c3ccc4[nH]cc(CCOP(=O)(O)O)c4c3)CC2)c2cccc(C)n2)c(C)c1.[Na].[Na] (centres unmarked) [Cpd.6, disodium {2-[5-(1-{[(2,4-dimethyl phenyl)(6-methylpyridin-2-yl)methyl]carbamoyl}cyclopropyl)-1H-indol-3-yl]ethoxy} phosphonic acid] | > 62700 | ≥12 000 | – |
| Cc1ccc(C(NC(=O)C2(c3ccc4[nH]cc(CCOP(=O)([O-])[O-])c4c3)CC2)c2ccc(C)o2)c(C)c1.[Na+].[Na+] (centres unmarked) [Cpd.2, disodium 2-[5-(1-{[(2,4-dimethylphenyl)(5-methylfuran-2-yl)methyl]carbamoyl}cyclopropyl)-1H-indol-3-yl]ethyl phosphate] | 143000 | 1 588 | Cpd.2 quantification in hBALf, percentage of initial signal area ([2]; 1 μM, time point 0 min): 100%; Cpd.2 quantification in hBALf, percentage of initial signal area ([2]; 1 μM, time point 5 min): 16.46%; Cpd.2 quantification in hBALf, percentage of initial signal area ([2]; 1 μM, time point 15 min): 1.84%; Cpd.2 quantification in hBALf, percentage of initial signal area ([2]; 1 μM, time point 30 min): 0.57%; Cpd.2 quantification in hBALf, percentage of initial signal area ([2]; 1 μM, time point 60 min): 0.28%; Cpd.2 quantification in hBALf, percentage of initial signal area ([2]; 1 μM, time point 120 min): 0.19%; Cpd.2 quantification in hBALf, percentage of initial signal area ([2]; 10 μM, time point 0 min): 100%; Cpd.2 quantification in hBALf, percentage of initial signal area ([2]; 10 μM, time point 5 min): 14.98%; Cpd.2 quantification in hBALf, percentage of initial signal area ([2]; 10 μM, time point 15 min): 4.27%; Cpd.2 quantification in hBALf, percentage of initial signal area ([2]; 10 μM, time point 30 min): 1.38%; Cpd.2 quantification in hBALf, percentage of initial signal area ([2]; 10 μM, time point 60 min): 0.49%; Cpd.2 quantification in hBALf, percentage of initial signal area ([2]; 10 μM, time point 120 min): 0.25%; percentage of initial signal area for Cpd.2 (stability in water) ([3]; time point 0 days): 100%; percentage of initial signal area for Cpd.2 (stability in water) ([3]; time point 5 days): 98%; percentage of initial signal area for Cpd.2 (stability in water) ([3]; time point 7 days): 98%; fold more soluble compared to unphosphated analogue [1]: at least 1500 fold |
| Cc1ccc(C(NC(=O)C2(c3ccc4[nH]cc(CCO)c4c3)CC2)c2ccc(C)o2)c(C)c1 (centres unmarked) [Cpd.A, N-[(2,4-dimethylphenyl)(5-methylfuran-2-yl)methyl]-1-[3-(2-hydroxyethyl)-1H-indol-5-yl]cyclopropane-1-carboxamide, reference compound] | 90 (≈ 203 µM) | – | – |
| COc1ccc(C(NC(=O)C2(c3ccc4[nH]cc(CCOP(=O)([O-])[O-])c4c3)CC2)c2ccccc2)c(C)c1.[Na+].[Na+] (centres unmarked) [Cpd.10, disodium 2-[5-(1-{[(4-methoxy-2-methylphenyl)(phenyl)methyl]carbamoyl}cyclopropyl)-1H-indol-3-yl]ethyl phosphate] | > 50400 | ≥13513 | – |
| Cc1ccc(C(NC(=O)C2(c3ccc4[nH]cc(CCO)c4c3)CC2)c2cccc(Cl)c2)c(C)c1 (centres unmarked) [Ex.4a, N-[(3-chlorophenyl)(2,4-dimethylphenyl)methyl]-1-[3-(2-hydroxyethyl)-1H-indol-5-yl]cyclopropane-1-carboxamide] | 0.1 (≈ 0.211 µM) | – | – |
| Cc1ccc(C(NC(=O)C2(c3ccc4[nH]cc(CCO)c4c3)CC2)C2CC2)c(C)c1 (centres unmarked) [Ex.7a, N-[cyclopropyl(2,4-dimethylphenyl)methyl]-1-[3-(2-hydroxyethyl)-1H-indol-5-yl]cyclopropane-1-carboxamide] | 11.9 (≈ 29.6 µM) | – | – |
| COc1cc(C)ccc1C(NC(=O)C1(c2ccc3[nH]cc(CCOP(=O)([O-])[O-])c3c2)CC1)c1ccccc1.[Na+].[Na+] (centres unmarked) [Cpd.4, disodium 2-[5-(1-{[(2-methoxy-4-methylphenyl)(phenyl)methyl]carbamoyl}cyclopropyl)-1H-indol-3-yl]ethyl phosphate] | 11200 | 7 000 | – |
| Cc1noc(C)c1C(NC(=O)C1(c2ccc3[nH]cc(CCOP(=O)([O-])[O-])c3c2)CC1)c1ccccc1.[Na+].[Na+] (centres unmarked) [Cpd.18, disodium 2-[5-(1-{[(dimethyl-1,2-oxazol-4-yl) (phenyl)methyl]carbamoyl}cyclopropyl)-1H-indol-3-yl] ethyl phosphate] | – | ≥911 | Solubility [1, 4]: >71350 µg/mL |
| Cc1ccc(C(NC(=O)C2(c3ccc4[nH]cc(CCOP(=O)([O-])[O-])c4c3)CC2)c2ccccc2)c(N2CCOCC2)c1.[Na+].[Na+] (centres unmarked) [Cpd.16, disodium 2-{5-[1-({[4-methyl-2-(morpholin-4-yl)phenyl](phenyl)methyl}carbamoyl)cyclopropyl]-1H-indol-3-yl}ethyl phosphate] | 3640 | 52 057 | – |
| Cc1ccc(C(NC(=O)C2(c3ccc4[nH]cc(CCO)c4c3)CC2)c2cccc(C)n2)c(C)c1 (centres unmarked) [Ex.3a, N-[(2,4-dimethylphenyl)(6-methylpyridin-2-yl)methyl]-1-[3-(2-hydroxyethyl)-1H-indol-5-yl]cyclo-propane-1-carboxamide] | 5.2 (≈ 11.5 µM) | – | – |
| Cc1ccc(C(NC(=O)C2(c3ccc4[nH]cc(CCO)c4c3)CC2)c2ccccc2)c(N2CCOCC2)c1 (centres unmarked) [Ex.8a, 1-[3-(2-hydroxyethyl)-1H-indol-5-yl]-N-{[4-methyl-2-(morpholin-4-yl)phenyl](phenyl)methyl}cyclopropane-1-carboxamide] | 0.07 (≈ 0.137 µM) | – | – |
| Cc1noc(C)c1C(NC(=O)C1(c2ccc3[nH]cc(CCO)c3c2)CC1)c1ccccc1 (centres unmarked) [Ex.9d, N-[(dimethyl-1,2-oxazol-4-yl)(phenyl)methyl]-1-[3-(2-hydroxyethyl)-1H-indol-5-yl]cyclopropane-1-carboxamide] | 78.3 (≈ 182 µM) | – | – |
| Cc1ccc(C(NC(=O)C2(c3ccc4[nH]cc(CCOP(=O)([O-])[O-])c4c3)CC2)c2cccc(Cl)c2)c(C)c1.[Na+].[Na+] (centres unmarked) [Cpd.8, disodium 2-[5-(1-{[(3-chlorophenyl)(2,4-dimethylphenyl)methyl]carbamoyl}cyclopropyl)-1H-indol-3-yl]ethyl phosphate] | > 10000 | ≥100 000 | fold more soluble compared to unphosphated analogue [1]: more than 100 000 fold |
